Assay results reported in ChEMBL document CHEMBL3600331, “Small molecule inhibits activity of scavenger receptor A: Lead identification and preliminary studies” (Bioorg Med Chem Lett, 2015).
Active and inactive are the calls of the source. No cut-off for these calls is given here.

What was measured:
[1] = target: T1, Macrophage scavenger receptor types I and II (Mus musculus) (UniProt P30204); experiment: Inhibition of scavenger receptor A in wild type C57BL/6 mouse BMDC assessed as OVA257-264 peptide-induced T cell activation by measuring IL2 production at 10 uM after 56 hrs by ELISA
T1 sequence (whole entry): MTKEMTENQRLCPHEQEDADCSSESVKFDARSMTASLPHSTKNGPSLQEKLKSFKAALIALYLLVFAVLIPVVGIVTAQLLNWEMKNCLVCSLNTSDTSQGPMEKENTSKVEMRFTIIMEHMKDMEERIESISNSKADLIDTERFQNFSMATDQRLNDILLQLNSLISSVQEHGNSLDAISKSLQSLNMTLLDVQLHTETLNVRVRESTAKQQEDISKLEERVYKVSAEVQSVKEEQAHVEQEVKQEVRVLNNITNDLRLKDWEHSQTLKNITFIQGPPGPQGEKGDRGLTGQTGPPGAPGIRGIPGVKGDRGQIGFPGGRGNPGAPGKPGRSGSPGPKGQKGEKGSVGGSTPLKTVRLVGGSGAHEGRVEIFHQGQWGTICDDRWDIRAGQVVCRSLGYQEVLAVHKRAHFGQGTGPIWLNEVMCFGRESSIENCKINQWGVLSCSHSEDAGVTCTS

[2] = target: T1, Macrophage scavenger receptor types I and II (Mus musculus); experiment: Inhibition of scavenger receptor A in wild type C57BL/6 mouse BMDC assessed as OVA257-264 peptide-induced T cell activation by measuring IL2 production at 30 uM after 56 hrs by ELISA
[3] = tested on: B3Z; experiment: Inhibition of scavenger receptor A (unknown origin) in mouse B3Z cells assessed as anti-CD3/CD28 antibody-induced T cell activation by measuring transcription of il2 gene after 5 hrs by beta-galactosidase assay; assay type: cell-based
[4] = target: T1, Macrophage scavenger receptor types I and II (Mus musculus); experiment: Inhibition of scavenger receptor A in wild type C57BL/6 mouse BMDC assessed as gp100 (25 to 33) peptide-induced T cell activation by measuring IL2 production at 20 uM after 56 hrs by ELISA
[5] = tested on: T-cell; experiment: Inhibition of OVA257-264 peptide-induced T cell activation in SRA-deficient C57BL/6 mouse BMDC assessed as IL2 production at 10 to 30 uM after 56 hrs by ELISA; assay type: functional, cell-based
[6] = target: T1, Macrophage scavenger receptor types I and II (Mus musculus); experiment: Inhibition of scavenger receptor A in mouse DC1.2 cells assessed as decrease in poly(I:C)-induced activation of IRF3 pretreated for 2 hrs before poly(I:C) stimulation measured after 3 hrs by immunoblotting; assay type: cell-based
[7] = target: T1, Macrophage scavenger receptor types I and II (Mus musculus); experiment: Inhibition of scavenger receptor A in mouse DC1.2 cells assessed as decrease in poly(I:C)-induced activation of STAT1 pretreated for 2 hrs before poly(I:C) stimulation measured after 3 hrs by immunoblotting; assay type: cell-based

Row | Structure (SMILES) | inhibition [1] | inhibition [2] | inhibition [3] | inhibition [4] | inhibition [5] | inhibition [6] | inhibition [7]
1 | O=C(O)c1cc(O)c2c(c1)C(=O)c1cccc(O)c1C2=O | Active | Active | Dose-dependent effect | Active | inactive | Dose-dependent effect | Dose-dependent effect
2 | O=C(O)c1cc(O)c2c(c1)[C@@H]([C@H]1c3cc(C(=O)O)cc(O)c3C(=O)c3c(O[C@@H]4O[C@H](CO)[C@@H](O)[C@H](O)[C@H]4O)cccc31)c1cccc(O[C@@H]3O[C@H](CO)[C@@H](O)[C@H](O)[C@H]3O)c1C2=O | – | – | – | Active | – | – | –
